Experimental data: patent US11391739B2, “Compositions and methods for treating multiple myeloma” (DANA-FARBER CANCER INSTITUTE, INC., priority 2014, dated 2022)

Tests used:
Format in all cases: cell-based, human
[1] = system: MM1S-luc cells; assay: Transwell migration assay of MM1S-luc cells
Experimental: For cell migration assays, the top chamber of transwell plates ([…], Corning Costar) was seeded with 2×10^5 MM1S-luc cells, and the bottom chamber was seeded with either medium (0.1% FBS) alone, BMEC-60 cells, BMEC-60 cell-conditioned medium, or plain medium containing CyPA and/or CD147. After 12 hrs of incubation, MM1S-luc cells that had migrated to the bottom chamber were collected and quantified by Xenogen Imaging. Migration of RPMI, U266, CLL, LPL, or primary tumor cells was evaluated by counting the number of unlabeled cells in the lower chamber. Each experiment was done in triplicate and repeated twice. Recombinant HPLC-purified eCyPA was purchased from BioMart Inc. and eCyPB (PPIB) human recombinant protein was purchased from Abnova. In most instances, 50 ng/ml of eCyPA or eCyPB diluted in serum-free RPMI medium was used. CM was collected from confluent cultures of BMEC-60 cells incubated for 48 hours. When needed, the CM was treated with 100 μ/ml proteinase K (19133, Qiagen) for 2 hrs and then deactivated for 15 min at 70° C. Anti-CD147 (UM-8D6) antibody and monoclonal mouse IgG1 (MOPC31C) were obtained from Ancell; anti-CXCR4 (MAB171) was from R&D systems. Migration data were normalized using the data obtained with medium alone. Results are means.±SD for triplicate assays.

[2] = system: H929, OPM2, RPMI and primary MM cells; assay: Transwell migration assay of other MM cell lines and primary MM cells; settings: 50 ng/ml recombinant protein
Experimental: FIG. 12. (FIG. 12A) CyPA immunostains in two different NBM, kidney, liver, and lymph node biopsies from healthy subjects. (FIG. 12B) Serum levels of eCyPA in 10 BM aspirates from MGUS and MM patients. (FIG. 12C) Transwell migration assay of MM1S-luc cells incubated in the absence of serum (Medium) or BM serum from two different MM patients with low (PT #4) and high (PT #12) levels of eCyPA (same as FIG. 4I). Migration data was normalized based on data of medium alone. (FIG. 12D) Transwell migration assay of H929, OPM2 and RPMI cells incubated with medium alone or in the presence of 50 ng/ml of recombinant eCyPA. (FIG. 12E) Transwell migration assay of two MM primary tumors (MMPT #1 and MMPT #2) incubated with medium alone or 50 ng/ml of recombinant eCyPA or BMEC-60 cells.
(§1) For cell migration assays, the top chamber of transwell plates ([…], Corning Costar) was seeded with 2×10^5 MM1S-luc cells, and the bottom chamber was seeded with either medium (0.1% FBS) alone, BMEC-60 cells, BMEC-60 cell-conditioned medium, or plain medium containing CyPA and/or CD147. After 12 hrs of incubation, MM1S-luc cells that had migrated to the bottom chamber were collected and quantified by Xenogen Imaging. Migration of RPMI, U266, CLL, LPL, or primary tumor cells was evaluated by counting the number of unlabeled cells in the lower chamber. […]

[3] = system: H929 and MM1S cells; assay: Immunoblot analysis of total protein extracts from MM cells
Experimental: Total protein samples were prepared from non-attached H929 and MM1S cells grown in CM from cultures of BMEC-60 or BMEC-1 cells attached for 72 hr. In some experiments, the cells were co-cultured with BMEC-60 cells using transwell chambers (Corning Costar, 0.45 µm pore diameter). Immunoblotting was performed as described in Takada et al., Sci. Transl. Med. 4, 148ra117 (2012). When MM1S and H929 cells were treated with eCyPA or CD147 Ab, they were first incubated with eCyPA or CD147 Ab for 5 hrs in serum-free medium. Then 0.5% serum was added, and incubation was resumed for another 72 hrs before performing protein preparation. Anti-human primary antibodies included: BCL9 (2D4, Abnova), CyPA (ERPR7511, Abcam), CD147 (#13287, Cell Signaling), pSTAT3 (#9131, Cell Signaling), pERK (#4370, Cell Signaling), PARP (#9542, Cell Signaling), pAKT (#9271, Cell Signaling), Active-β-catenin (05-665, Millipore), Factor VIII (A0082, DAKO), MMP-9 (MAB911, R&D), CyPB (MAB5410, R&D), and horseradish peroxidase (HRP)-conjugated actin (C-11, Santa Cruz). Actin Ab was used as a loading control. Secondary antibodies included: anti-rabbit IgG (HRP)-conjugated (W402b, Promega), and anti-mouse IgG (HRP)-conjugated (W401b, Promega). Protein concentrations were measured in triplicate by Bradford assay (BioRad). Optimal antibody concentrations were used according to the manufacturer's recomendations.

[4] = system: H929 and MM1S cells; assay: Proliferation of MM cells ([3H]TdR incorporation)
Experimental: Cell proliferation was evaluated by [^3H]TdR incorporation as described in Mani et al., Cancer Res. 69: 7577-7586 (2009). When proliferation of MM cells was determined in the presence of HS5 or BMEC-60 cells, the latter were previously gamma-irradiated (10,000 rads) and dispensed into 96-well plates. Then, MM1S and H929 cells were co-cultured with either BMEC-60 cells, CM alone, CyPA, or CyPB for 72 hrs. Viability of MM1s-Luc cells were co-cultured with BMEC-60 cells and then treated with drugs as described was assessed, using the tumor cell-specific in vitro bioluminescence imaging (SS-BLI).

[5] = system: CLL and LPL cells; assay: Transwell migration assay of CLL and LPL cells; settings: 50 ng/ml recombinant eCyPA
Source text: FIG. 16. (FIG. 16A) Representative immunostains (top, n=10) and flow cytometric (bottom, n=6) analysis of CD147 expression in BM samples from CLL patients. (FIG. 16B) Representative immunostains (top, n=10) and flow cytometric (bottom, n=6) analysis of CD147 expression in BM samples from LPL patients. (FIG. 16C) Flow cytometry of CD147 (red line) and control isotype (black line) expression in one CLL cell line (HG3) and one primary tumor patient cells (CLLPT #1). (FIG. 16D) Flow cytometry of CD147 (red line) and control isotype (black line) expression in one LPL cell line (BCWM.1) and one primary tumor patient cells (LPLPT #1). […] Migration of primary CLL and LPL tumor patient cells was evaluated in four different samples for each tumor type. […] Unlabeled cell lines and primary tumors were used, and migration was evaluated by counting cells in the bottom chamber. […]
as §1, with “Imaging.” for “Imaging. Migration of RPMI, U266, CLL, LPL, or primary tumor cells was evaluated by counting the number of unlabeled cells in the lower chamber.”

Row | Substance | concentration giving maximal migration response ([1]; MM1S-luc cells) [ng/mL] | lowest concentration inducing significant migration ([1]; MM1S-luc cells) [ng/mL] | migration of MM cells incubated with BMEC-1 transduced with CyPA-shRNAs ([1]; addition of 50 ng/ml recombinant eCyPA) | migration of MM1S-luc cells ([1]; purified recombinant protein, time- and concentration-dependent) | migration of other MM cell lines (H929, OPM2, RPMI) [2] | migration of primary MM cells [2] | signaling pathways (Wnt/β-catenin, STAT3, AKT, ERK) in MM cells ([3]; 50 ng/ml eCyPA vs without) | higher-glycosylated form of CD147 in MM cells ([3]; CyPA-treated) | expression of matrix metalloprotease 9 (MMP-9) ([3]; cells treated with eCyPA) | CD147 expression in MM cells ([3]; concentration-dependent and time-dependent) | proliferation of H929 and MM1S cells ([4]; concentration-dependent) | migration of CLL cells [5] | migration of LPL cells [5] | migration of MM1S-luc cells, CyPB compared with CyPA ([1]; 50 ng/ml each) | proliferation of MM cells ([4]; tested at much higher concentrations than those in BM serum of MM patients)
1 | eCyPA: Recombinant HPLC-purified eCyPA (extracellular cyclophilin A) purchased from BioMart Inc. | 50 | 6 | restored migration | promoted migration | induced migration | induced migration | activation of several signaling pathways | increased | increased | dramatically increased | enhanced | enhanced migration | enhanced migration |  | 
2 | CyPB: eCyPB (PPIB) human recombinant protein purchased from Abnova |  |  |  |  |  |  |  |  |  |  |  |  |  | Major differences were likewise not observed | induces proliferation
